Results taken from PMC7076710, “Synthesis, Identification, and Structure–Activity Relationship Analysis of GATA4 and NKX2-5 Protein–Protein Interaction Modulators” (Journal of Medicinal Chemistry, 2019).

Molecular target: T1, GATA4–NKX2-5 transcriptional synergy (Mus musculus, UniProt P42582+Q08369)
T1 construct: expressed in transfected cells; host or cells: COS-1
Experiment: GATA4–NKX2-5 transcriptional synergy luciferase reporter assay (3xNKE reporter, COS-1 cells)
Assay type: cell-based
Procedure: To screen compounds for the GATA4–NKX2-5 interaction, we have developed a luciferase reporter assay based on their property to activate gene transcription synergistically through the NKX2-5 binding site on DNA.[28] In this assay, we transfected mammalian COS-1 cells with protein expression vectors for GATA4 and NKX2-5 proteins together with artificial luciferase reporter vector containing three high affinity binding sites for NKX2-5 (NKE). […] All 257 compounds were tested in two concentrations, 3 and 10 μM. Compounds either inhibited, enhanced, or had no effect on the GATA4–NKX2-5 transcriptional synergy. To investigate the selectivity of the active compounds, we tested their effects on NKX2-5 transcriptional activity by using the same luciferase reporter vector as in transcriptional synergy assay with three NKE sites (Figure 3B). Furthermore, we used GATA luciferase reporter assay to examine if compounds have an effect on GATA4 transcriptional activity. In this assay, we cotransfected the cells with a GATA4 protein expression vector and a reporter vector with tandem GATA4 binding sites (Figure 3C). Previously we have reported that compound 1 inhibited the GATA4–NKX2-5 transcriptional synergy at micromolar concentrations (IC50 = 3 μM).[29]
The plasmids expressing mouse GATA4 protein, pMT2-GATA4, and empty pMT2 were gifts from D. B. Wilson (Department of Pediatrics, St. Louis Children’s Hospital, St. Louis, MO).[44] The plasmids expressing mouse NKX2-5 protein, pMT2-NKX2-5, have been described earlier.[28] The luciferase reporter plasmid used in GATA4–NKX2-5 transcriptional synergy assay and NKX transcriptional assay, pGL3-3xHA, contains three high affinity binding sites for NKX2-5.[28] The luciferase reporter plasmid used in GATA transcriptional assay, NP-112, contains tandem GATA-sites and minimal promoter of rat brain natriuretic peptide (BNP) gene.[45] The pGL3-BNP luciferase reporter containing −534/+4 bp rat BNP proximal promoter described previously was used in hypertrophy assay.[46]
The primary screening assay of compounds’ effect on GATA4–NKX2-5 transcriptional synergy and COS-1 cell culturing has been described earlier.[33] […] (Kinnunen et al., unpublished observation). Briefly, COS-1 cells were seeded at 14 000 cells/well in Isoplate-96 microplates (PerkinElmer, Turku, Finland) and grown overnight. The cells were transfected with the luciferase reporter plasmid pGL3-3xHA 100 ng/well and equal amounts of expression plasmids pMT2-GATA4 and pMT2-NKX2-5 total 50 ng/well. To verify the synergistic effect, the cells were transfected with pMT2-GATA4 or pMT2-NKX2-5 25 ng/well, and the total DNA concentration was adjusted to 50 ng/well with empty pMT2 plasmid. In NKX2-5 and GATA4 luciferase reporter assays, the cells were transfected with reporter plasmid pGL3-3xHA or NP-112 (100 ng/well) and expression plasmid pMT2-NKX2-5 or pMT2-GATA4 (25 ng/well). The ratio of DNA/transfection reagent (Fugene 6, Promega) was 1:3 in all assays. The transfections were performed in serum and antibiotics free media for 6 h. The cells were treated with compounds or vehicle (0.1% DMSO) for 24 h, and the luminescence was measured using neolite Reporter Gene Assay System (PerkinElmer, Turku, Finland) and Victor2 plate reader (PerkinElmer, Turku, Finland).
Raw luciferase data were analyzed in Excel, and clear outliers were removed from triplicates by using the Grubb’s test. Data analysis was performed using R.[49] The luciferase data were first normalized on the basis of the combined mean value of controls. For data visualization and creation of figures, the following R packages were used: ggplot2, cowplot, RColorBrewer, and pheatmap. The heatmaps of the toxicity data were produced with GraphPad Prism 7.00 (GraphPad Software, La Jolla, CA). Statistical significance of luciferase reporter assay data was evaluated by randomized block analysis of variance followed by Dunnett’s post hoc test. […]

[1] = COS-1, compound at 3 µM, luciferase reporter activity, % of control
[2] = COS-1, compound 3 µM, luciferase reporter activity, spread in separate STDEV column
[3] = COS-1, 3 µM, luciferase reporter activity, % of control
[4] = 3 µM compound, GATA4–NKX2-5 transcriptional synergy reporter, COS-1 cells
[5] = 10 µM compound, GATA4–NKX2-5 transcriptional synergy reporter, COS-1 cells
[6] = COS-1, compound 3 µM, luciferase reporter activity relative to control
[7] = COS-1, compound 10 µM, luciferase reporter activity relative to control

T1 sequence (Q08369 whole entry): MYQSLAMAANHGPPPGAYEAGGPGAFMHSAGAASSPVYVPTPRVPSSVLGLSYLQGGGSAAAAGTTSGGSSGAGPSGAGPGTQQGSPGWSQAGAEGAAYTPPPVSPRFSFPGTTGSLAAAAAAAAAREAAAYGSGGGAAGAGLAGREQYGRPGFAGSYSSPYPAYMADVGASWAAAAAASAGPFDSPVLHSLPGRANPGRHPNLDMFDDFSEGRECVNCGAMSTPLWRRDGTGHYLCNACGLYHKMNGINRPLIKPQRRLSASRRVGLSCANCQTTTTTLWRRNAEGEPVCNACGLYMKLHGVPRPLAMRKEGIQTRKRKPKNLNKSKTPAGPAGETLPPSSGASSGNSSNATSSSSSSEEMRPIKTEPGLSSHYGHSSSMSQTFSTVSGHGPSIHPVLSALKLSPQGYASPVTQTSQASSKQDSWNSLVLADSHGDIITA
T1 sequence (P42582 whole entry): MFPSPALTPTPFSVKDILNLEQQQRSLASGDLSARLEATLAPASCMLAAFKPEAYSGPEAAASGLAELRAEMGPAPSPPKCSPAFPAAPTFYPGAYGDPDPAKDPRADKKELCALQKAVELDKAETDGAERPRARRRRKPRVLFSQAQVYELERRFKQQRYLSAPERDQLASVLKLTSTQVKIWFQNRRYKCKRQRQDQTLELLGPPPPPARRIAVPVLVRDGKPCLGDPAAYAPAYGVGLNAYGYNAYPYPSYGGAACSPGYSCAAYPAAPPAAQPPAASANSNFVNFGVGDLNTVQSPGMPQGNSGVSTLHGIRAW

activity at 3 µM [1] [%]	activity at 3 µM [6] [%]	SMILES	also measured
96.5		CCC(O)c1ccc(OCc2c(-c3ccccc3)noc2C)cc1 (racemic) [Compound 34d, (rac)-1-[4-[(5-Methyl-3-phenylisoxazol-4-yl)methoxy]phenyl]propan-1-ol]	
		Cc1onc(-c2ccccc2)c1C(=O)Nc1ccc2c(c1)C(=O)CC2 [Compound 4a, 5-Methyl-N-(3-oxo-2,3-dihydro-1H-inden-5-yl)-3-phenylisoxazole-4-carboxamide]	activity at 3 µM [2]: 103%
93.7		CCN(CCO)c1ccc(NC(=O)c2c(-c3ccccc3)noc2C)cc1 [Compound 4b]	
		CCN(CC)c1ccc(NC(=O)c2c(-c3ccccc3)noc2C)cc1Cl [Compound 4c]	activity at 3 µM [2]: 92.6%
		Cc1onc(-c2ccccc2)c1C(=O)Nc1ccc(N(C)C)cc1 [Compound 4d, N-[4-(Dimethylamino)phenyl]-5-methyl-3-phenylisoxazole-4-carboxamide]	activity at 3 µM [3]: 88.1%
		Cc1cc(NC(=O)c2c(-c3ccccc3)noc2C)ccc1C(C)C [Compound 4e]	activity at 3 µM [3]: 95.2%
		Cc1onc(-c2ccccc2)c1C(=O)Nc1ccc(OCCN2CCOCC2)cc1 [Compound 4h]	activity at 3 µM [3]: 89.8%
88.4		CC[N+](C)(c1ccc(NC(=O)c2c(-c3ccccc3)noc2C)cc1)C(C)C (centres unmarked) [Compound 7, N-Ethyl-N-isopropyl-N-methyl-4-(5-methyl-3-phenylisoxazole-4-carboxamido)benzenaminium Iodide]	
76.3		CCN(c1ccc(NC(=O)c2c(-c3ccccc3)noc2C)cc1[N+](=O)[O-])C(C)C [Compound 8, N-[4-[Ethyl(isopropyl)amino]-3-nitrophenyl]-5-methyl-3-phenylisoxazole-4-carboxamide]	
92.6		CCN(c1ccc(NC(=O)c2c(-c3ccccc3)noc2C)cc1N)C(C)C [Compound 9, N-[3-Amino-4-[ethyl(isopropyl)amino]phenyl]-5-methyl-3-phenylisoxazole-4-carboxamide]	
		Cc1onc(-c2ccccc2)c1C(=O)Nc1ccc(C(=O)OCC#N)cc1 [Compound 10a, Cyanomethyl 4-(5-Methyl-3-phenylisoxazole-4-carboxamido)benzoate]	activity at 3 µM [4]: 95%
		Cc1onc(-c2ccccc2)c1C(=O)Nc1ccc(C(=O)OCCN(C)C)cc1 [Compound 10d]	activity at 3 µM [2]: 99.6%; activity at 10 µM (COS-1, compound 10 µM, luciferase reporter activity, spread in separate STDEV column): 115%
		C#Cc1ccc(NC(=O)c2c(-c3ccccc3)noc2C)cc1 [Compound 15, N-(4-Ethynylphenyl)-5-methyl-3-phenylisoxazole-4-carboxamide]	activity at 3 µM [4]: 93.2%
		CCN(CC)c1ccc(N(Cc2c(-c3ccccc3)noc2C)C(C)=O)cc1 [Compound 16, N-[4-(Diethylamino)phenyl]-N-[(5-methyl-3-phenylisoxazol-4-yl)methyl]acetamide]	activity at 3 µM [4]: 93.1%
		CCN(CC)c1ccc(/N=C/c2c(-c3ccccc3)noc2C)cc1 [Compound 19, (E)-N^1,N^1-Diethyl-N^4-[(5-methyl-3-phenylisoxazol-4-yl)methylene]benzene-1,4-diamine]	activity at 3 µM [4]: 102%; activity at 10 µM [5]: 99.7%
		CCN(CC)c1ccc(NCc2c(-c3ccccc3)noc2C)cc1 [Compound 20, N^1,N^1-Diethyl-N^4-[(5-methyl-3-phenylisoxazol-4-yl)methyl]benzene-1,4-diamine]	activity at 3 µM [4]: 85.3%; activity at 10 µM [5]: 104%
	104	CCN(CC)c1ccc(NS(=O)(=O)c2c(-c3ccccc3)noc2C)cc1 [Compound 21, N-[4-(Diethylamino)phenyl]-5-methyl-3-phenylisoxazole-4-sulfonamide]	
		Cc1onc(-c2ccccc2)c1COc1ccc([N+](=O)[O-])cc1 [Compound 21b]	activity at 3 µM [3]: 94%
90.6		CCN(CC)c1ccc(NC(=S)c2c(-c3ccccc3)noc2C)cc1 [Compound 23, N-[4-(Diethylamino)phenyl]-5-methyl-3-phenylisoxazole-4-carbothioamide]	
72.7		CCN(CC)c1ccc(/N=C(\SC)c2c(-c3ccccc3)noc2C)cc1 [Compound 24a]	

activity at 3 µM [1] [%]	activity at 3 µM [6] [%]	SMILES	also measured
122		CCN(CC)c1ccc(/N=C(\SCCF)c2c(-c3ccccc3)noc2C)cc1 [Compound 24b]	activity at 10 µM (COS-1, compound at 10 µM, luciferase reporter activity, % of control): 108%
	81.6	CCN(CC)c1ccc(N(CCF)C(=O)c2c(-c3ccccc3)noc2C)cc1 [Compound 25b]	
		CCN(CC)c1ccc(N(Cc2ccccc2)C(=O)c2c(-c3ccccc3)noc2C)cc1 [Compound 25c]	activity at 3 µM [3]: 80.2%
	92.9	CCN(CC)c1ccc(N(C)C(=S)c2c(-c3ccccc3)noc2C)cc1 [Compound 26]	
98.5		CCN(CC)c1ccc(C(=O)Nc2c(-c3ccccc3)noc2C)cc1 [Compound 27]	
	103	CCN(CC)c1ccc(CN(C)c2c(-c3ccccc3)noc2C)cc1 [Compound 30a, N-[4-(Diethylamino)benzyl]-N,5-dimethyl-3-phenylisoxazol-4-amine]	
	90	CCN(CC)c1ccc(CN(C(=O)Nc2ccc(C#N)cc2)c2c(-c3ccccc3)noc2C)cc1 [Compound 30d]	
	94.1	CCN(CC)c1ccc(/C=N/c2c(-c3ccccc3)noc2C)cc1 [Compound 31, (E)-N-[4-(Diethylamino)benzylidene]-5-methyl-3-phenylisoxazol-4-amine]	
	97.7	CCCOC(=O)c1ccc(OCc2c(-c3ccccc3)noc2C)cc1 [Compound 34c, Propyl 4-[(5-Methyl-3-phenylisoxazol-4-yl)methoxy]benzoate]	activity at 10 µM [7]: 107%
	114	Cc1onc(-c2ccccc2)c1COc1ccc(C(=O)OCc2ccoc2)cc1 [Compound 35c]	activity at 10 µM [7]: 101%
	87.7	Cc1onc(-c2ccccc2)c1COc1ccc(C(=O)OCC(C)C)cc1 [Compound 35e]	
	106	Cc1onc(-c2ccccc2)c1COc1ccc(C(=O)N(C)CCCO)cc1 [Compound 36a]	activity at 10 µM [7]: 105%
	79.3	CCN(CC)C(=O)c1ccc(OCc2c(-c3ccccc3)noc2C)cc1 [Compound 36b]	
	102	Cc1onc(-c2ccccc2)c1COc1ccc(C(=O)O)cc1 [Compound 38, 4-[(5-Methyl-3-phenylisoxazol-4-yl)methoxy]benzoic Acid]	
		CCN(CC)c1ccc(NC(=O)c2c(-c3ccc([N+](=O)[O-])cc3)noc2C)cc1 [Compound 39a]	activity at 3 µM [3]: 89.2%; activity at 10 µM (COS-1, 10 µM, luciferase reporter activity, % of control): 99.8%
88.9		CCN(CC)c1ccc(NC(=O)c2c(-c3c(Cl)cccc3Cl)noc2C)cc1 [Compound 39e, 3-(2,6-Dichlorophenyl)-N-[4-(diethylamino)phenyl]-5-methylisoxazole-4-carboxamide]	
76.3		CCN(CC)c1ccc(NC(=O)c2c(-c3c(Cl)ccc([N+](=O)[O-])c3Cl)noc2C)cc1 [Compound 39f, 3-(2,6-Dichloro-3-nitrophenyl)-N-[4-(diethylamino)phenyl]-5-methylisoxazole-4-carboxamide]	
89.5		CCN(CC)c1ccc(NC(=O)c2c(-c3ccccc3[N+](=O)[O-])noc2C)cc1 [Compound 39h]	
		CCN(CC)c1ccc(NC(=O)c2c(-c3ccc(Br)cc3)noc2C)cc1 [Compound 39i]	activity at 3 µM [4]: 95.1%
